Measurements as given in patent publication US12528774B2, “Thiosemicarbazone compounds and uses thereof” (The Regents of the University of California, priority 2019, dated 2026).

Test system: MIAPACA2 cells
Test: Western blot of treated MIAPACA2 cells
Type: cell-based, human
Conditions: for phosphorylation of CHEK1 and CHEK2: HCT13 + Cu(II)
Experimental: FIGS. 2A-2I. FIG. 2A: representative immunoblots of MIAPACA2 PDAC cells treated as indicated for 24h. FIGS. 2B-2C: reactive oxygen species (ROS) measurement using CM-H2DCFDA staining after HCT13 (25 nM)+Cu(II) (20 μM) treatment for 24h; mean fluorescence intensity (MFI); mean±SD, n=2, Student t-test, ***P<0.001. FIG. 2D-2E: mitochondrial ROS detection using MitoSOX staining in MIAPACA2 PDAC cells treated with HCT-13 (25 nM)+Cu(II) (20 μM) for 24h; mean±SD, n=2, Student t-test, ***P<0.001. FIG. 2F: oxygen consumption rate (OCR) of MIAPACA2 PDAC cells treated with HCT-13 (25 nM)+Cu(II) (20 μM). FIG. 2G: OCR of isolated mitochondria measured with or without HCT-13 (25 nM)+Cu(II) (20 μM). FIG. 2H: viability of 143 BTK parental (wild type, WT) and po cells after 48 h of treatment with the indicated HCT-13 concentrations+Cu(II) (20 μM) treatment, assessed with trypan blue staining; mean±SD, n=2, Student t-test, ***P<0.001. FIG. 2I: cell viability by trypan blue staining in MIAPACA2 PDAC cells to interrogate the interaction of HCT-13 (25 nM)+Cu(II) (20 μM) with 2-DG (2 mM) for 48 h; mean±SD, n=2, Student t-test, ***P<0.001.
FIGS. 4A-4G show the chemical genomics screen identifying the replication stress response pathway as an actionable co-dependency of HCT13-treated cells. FIG. 4A: experimental design of a synthetic lethality screen using a library of protein kinase inhibitors against HCT13-treated cells in the presence of Cu(II) (20 μM). FIG. 4B: radar plot of screen results. FIG. 4C: z-score values for kinase inhibitors within the DNA damage response/replication stress response (DDR/RSR) pathway module. FIG. 4D: representative immunoblot of replication stress and cell death biomarkers in MIAPACA2 PDAC cells treated with HCT13 (10 nM)+Cu(II) (20 μM). […] (mean±SD, n=2, one-way ANOVA corrected for multiple comparisons by Bonferroni adjustment, * P<0.05; ** P<0.01; *** P<0.001; **** P<0.0001).
(§1) Western blot: Cells were lysed using RIPA buffer supplemented with protease (ThermoFisher, 78,430) and phosphatase (ThermoFisher, 78,420) inhibitors, scraped, sonicated, and centrifuged (20,000×g at 4° C.). Protein concentrations in the supernatant were determined using the Micro BCA Protein Assay kit (Thermo), and equal amounts of protein were resolved on pre-made Bis-Tris polyacrylamide gels (Life Technologies). Primary antibodies: pAMPKT172 (Cell signaling, #2535, 1:1000), HO-1 (Cell signaling, #5061S, 1:1000), pS345 CHEK1 (Cell signaling, #2348L, 1:1000), pT68 CHEK2 (Cell signaling, #2197 S, 1:1000), pS139 H2A.X (Millipore, 05-636, 1:1000), clvd. Casp3 (Cell signaling, #9662, 1:1000), and anti-actin (Cell Signaling Technology, 9470, 1:10,000). Primary antibodies were stored in 5% BSA (Sigma-Aldrich) and 0.1% NaN3 in TBST solution. Anti-rabbit IgG HRP-linked (Cell Signaling Technology, 7074, 1:2500) and anti-mouse IgG HRP-linked (Cell Signaling Technology, 7076, 1:2500) were used as secondary antibodies. Chemiluminescent substrates (ThermoFisher Scientific, 34,077 and 34,095) and autoradiography film (Denville) were used for detection.
as §1, with “blot.” for “blot:”, “Anti-rabbit IgG HRP-linked (Cell Signaling Technology, 7074, 1:2500) and anti-mouse IgG HRP-linked (Cell Signaling Technology, 7076, 1:2500) were used as secondary antibodies. Chemiluminescent substrates (ThermoFisher Scientific, 34,077 and 34,095) and autoradiography film (Denville) were used for detection.” left out

CN(C)C(=S)N/N=C/c1nccc2cc(F)ccc12 (mixture of isomers) [HCT13, (E)-2-((6-Fluoroisoquinolin-1-yl)methylene)-N,N-dimethylhydrazine-1-carbothioamide and (Z)-2-((6-Fluoroisoquinolin-1-yl)methylene)-N,N-dimethylhydrazine-1-carbothioamide]
heme oxygenase-1 (HO-1) levels (24 h): increased
AMPK phosphorylation (T172) (Cu(II)-supplemented cells, 24 hours): induction
phosphorylation of CHEK1 and CHEK2: consistently observed phosphorylation
phosphorylation of CHEK1 and CHEK2 (listed as HCT-13): phosphorylation of CHEK1 and CHEK2 kinases was observed
DNA damage marker pH2AX (HCT-13 + Cu(II)): induction of DNA damage marker pH2AX
apoptotic marker caspase 3 (HCT-13 + Cu(II)): cleavage of apoptotic marker caspase 3
